Source: US11261429B2, “Enriched and expanded human cord blood stem cells for treatment of hematological disorders” (ICAHN SCHOOL OF MEDICINE AT MOUNT SINAI, priority 2013, dated 2022)

Columns and labels:
HDAC3 = experiment: HDAC protein levels in CB-MNCs, Western blot densitometry; type: cell-based, human; conditions: 24 hr, SCR 8 μM, C433 80 μM, VPA 1.25 mM
Excerpt: (§2) Cellular proteins were separated by SDS-PAGE using Novex (Invitrogen) and transferred by iBlot (Invitrogen). The membranes were probed with mAbs against individual histone deacetylases (HDAC1, HDAC2, HDAC3, HDAC4, HDAC5, HDAC6, and β-actin; Cell Signaling Technology) and developed using a chemiluminescence system with HRP-conjugated secondary antibodies (Amersham Biosciences) according to the manufacturer's instructions.

HDAC4 = experiment: as above; type: cell-based, human; conditions: 24 hr, SCR 8 μM, C433 80 μM, VPA 1.25 mM
Excerpt: as §2

class I and II HDAC = experiment: HDAC protein levels in CB-MNCs, Western blot, all HDACs examined; type: cell-based, human; conditions: after 2 hours of treatment
Excerpt: as §2

NANOG = experiment: Pluripotency protein expression in re-isolated CD34+ cells, mAb staining and flow cytometry; type: cell-based, human; conditions: 7 days
Method: (§1) PCs and re-isolated, cultured CD34+ cells from control cultures and cultures containing VPA were fixed with methanol-free formaldehyde (2.8%) for 10 minutes at 37° C., briefly chilled on ice, and permeabilized with 100% ice-cold methanol. Cells were further incubated on ice for 20 minutes and blocked with incubation buffer (PBS containing 0.5% BSA) for 10 minutes and stained for SOX2 and OCT4 with an FITC-conjugated mAb or isotype controls for an hour at room temperature. Cells were also stained with a rabbit mAb for NANOG, followed by an FITC-conjugated anti-rabbit secondary antibody, and cells were washed and analyzed by flow cytometry.

OCT4 = experiment: as above; type: cell-based, human; conditions: 7 days
Method: as §1

SOX2 = experiment: as above; type: cell-based, human; conditions: 7 days
Method: as §1

hTERT = experiment: qPCR of pluripotency genes in CD34+ cells; type: cell-based, human; conditions: VPA-treated CD34+ cells
Method: Total RNA was extracted from the human ES cell line 89 (WA09; WiCell Research Institute Inc., Madison, Wis., USA), PCs, reisolated CD34+ cells from control cultures or cultures containing VPA in SF and SC media using TRIzol and an RNeasy kit from QIAGEN, CA. Total RNA (0.5-1.0 μg) was reverse transcribed into cDNA using an RNA to cDNA EcoDry Premix kit (Clontech). The primer sequences are listed in Table 6. qPCR was performed using SYBR Green (Thermo Fisher Scientific) and the Realplex thermocycler (Eppendorf). All experiments were performed in triplicate, and non-template controls (lacking cDNA template were included in each assay. GAPDH served as an internal standard. The amplicons were run on a 2% agarose gel with a 50-bp-size (DNA ladder) marker.

CB CD34+ cells = experiment: Effect of siRNA transfection on cell numbers and CD34+/CD34+CD90+ cells; type: cell-based, human; conditions: VPA culture, 72 hrs after transfection
Method: CB CD34+ cells were treated with VPA under SF culture conditions. VPA-treated cells were transfected with individual SOX2, OCT4, NANOG, GAPDH, and scrambled siRNA or with a combination of SOX2, OCT4, and NANOG Silencer Select siRNAs (Invitrogen, CA). A GFP plasmid was included to determine the transfection efficiency according to the manufacturer's instructions for the Neon transfection system (Invitrogen).
After 72 hours of VPA treatment, cells (0.5×10^6 to 1×10^6) were washed in PBS and suspended in 8 μl of Neon resuspension buffer R. Individual siRNAs (2 μl, 10-30 nM) or a combination of SOX2, OCT4, NANOG (SON), or pcDNA6.2/EmGFP plasmid (200 ng; Invitrogen) were mixed with the 8 μl of cells according to the manufacturer's instructions. Cells were pulsed three times with a voltage of 1,400 and a width of 20 ms and immediately transferred to pre-warmed media supplemented with cytokines plus VPA. […]
In addition, cells treated with scrambled or combined SON siRNA were stained using human CD34 and CD90 mAbs, and the percentages of CD34+ and CD34+CD90+ cells were determined by flow cytometric analysis. […] SOX2, OCT4, NANOG, and ZIC3 protein expression levels following SON siRNA-mediated pluripotency gene knockdown were assessed by confocal microscopy as described above.

NSG mice = experiment: Limiting dilution analysis of SCID-repopulating cells (SRC) in NSG mice; type: in vivo; conditions: for No. of mice with human cell chimerism/total number of mice transplanted: 12 to 13 weeks
Method: The frequency of human SRCs in PCs and the progeny of an equivalent number of CD34+ cells that were expanded under control conditions or in the presence of VPA were analyzed by limiting dilution analysis as described previously (Boitano et al., “Aryl Hydrocarbon Receptor Antagonists Promote the Expansion of Human Hematopoietic Stem Cells,” Science 329:1345-1348 (2010), which is hereby incorporated by reference in its entirety). Increasing numbers of PCs (50, 250, 500, 2,500, 5,000) or the progeny of an equivalent number of PCs cultured with VPA for 7 days or under control conditions were infused into NSG mice (n=111). The data from the limiting dilution experiments were pooled and analyzed by applying Poisson statistics to the single-hit model (n=111). The frequency was calculated using L-Calc software (StemCell Technologies Inc.) and plotted using ELDA software (bioinf.wehi.edu.au/software/elda/), available at the Walter and Eliza Hall Bioinformatics Institute of Medical Research. The tog fraction of non-responding values was converted to the percentage of negative mice using the following formula: percentage of negative mice=e log fraction.

[1] = system: ALDH+CD34+ and ALDH-CD34+ cells; experiment: BFU-E + CFU-Mix generated from sorted ALDH+CD34+ and ALDH-CD34+ cells; type: cell-based, human
Excerpt: A far greater number of BFU-E+CFU-Mix were generated from ALDH+CD34+ cells generated in the presence of each of the HDACI in SF cultures as compared with SC cultures (ANOVA, p=0.001). By contrast, a greater number of BFU-E+CFU-Mix were generated from ALDH-CD34+ cells in SC cultures as compared to SF cultures. Mean±SE, ANOVA, p=0.01 (n=3).
Purified ALDH+CD34+ cells generated using SF cultures supplemented with VPA generated greater absolute numbers of BFU-E and CFU-Mix (8.4×10^7±6.7×10^7/CB collection) as compared to SC cultures (1.4×10^7±0.88×10^7; ANOVA, p=0.001) (FIG. 20A). By contrast, ALDH-CD34+ cells from SC cultures supplemented with VPA generated greater numbers of BFU-E and CFU-Mix (2.7×10^6±1.0×10^6) as compared to SF cultures (3.5×10^5±0.78×10^5) (ANOVA, p=0.01) (FIG. 20B).

[2] = SC cultures supplemented with VPA
[3] = SF cultures supplemented with VPA

Structure (SMILES): CCCC(CCC)C(=O)O [VPA, valproic acid]
- HDAC3 expression relative to b-ACTIN (%) (HDAC3): 11.4 ± 12.4%
- HDAC4 expression relative to b-ACTIN (%) (HDAC4): 30.5 ± 9.3%
- inhibition of HDAC expression (class I and II HDAC): did not inhibit HDAC expression
- percentage of CD34+ cells expressing NANOG (NANOG; SC cultures): 5.6 ± 1.4^A %
- percentage of CD34+ cells expressing NANOG (NANOG; SF cultures): 57.6 ± 6.8^A %
- percentage of CD34+ cells expressing OCT4 (OCT4; SC cultures): 8.2 ± 1.7^A %
- percentage of CD34+ cells expressing OCT4 (OCT4; SF cultures): 32.9 ± 3.8^A %
- percentage of CD34+ cells expressing SOX2 (SOX2; SC cultures): 3.9 ± 1.9^A %
- percentage of CD34+ cells expressing SOX2 (SOX2; SF cultures): 23.1 ± 6.5^A %
- hTERT expression (hTERT): not upregulated
- CD34+CD90+ cells (%) (CB CD34+ cells): 78.6 ± 2.0 %
- Total number of cells/well (CB CD34+ cells): 4.0 × 10^6 ± 0.4 × 10^6 cells/well
- No. of SRCs generated per 1 × 10^6 CD34+ starting cells (NSG mice; Poisson statistics, VPA 7 days): 32,258
- increase in the number of SRCs compared with cells cultured under control conditions (NSG mice; VPA treatment versus control cultures): 299 fold
- increase in the number of SRCs compared with PCs (NSG mice; VPA treatment versus primary CB CD34+ cells): 36 fold
- No. of mice with human cell chimerism/total number of mice transplanted (NSG mice; progeny of 50 CD34+ cells): 8/10
- No. of mice with human cell chimerism/total number of mice transplanted (NSG mice; progeny of 250 CD34+ cells): 10/10
- No. of mice with human cell chimerism/total number of mice transplanted (NSG mice; progeny of 500 CD34+ cells): 8/8
- No. of mice with human cell chimerism/total number of mice transplanted (NSG mice; progeny of 2,500 CD34+ cells): 7/7
- No. of mice with human cell chimerism/total number of mice transplanted (NSG mice; progeny of 5,000 CD34+ cells): 7/7
- absolute numbers of BFU-E and CFU-Mix from ALDH+CD34+ cells [1, 2]: 1.4×10^7±0.88×10^7
- numbers of BFU-E and CFU-Mix from ALDH-CD34+ cells [1, 2]: 2.7×10^6±1.0×10^6
- absolute numbers of BFU-E and CFU-Mix from ALDH+CD34+ cells [1, 3]: 8.4×10^7±6.7×10^7 /CB collection
- numbers of BFU-E and CFU-Mix from ALDH-CD34+ cells [1, 3]: 3.5×10^5±0.78×10^5
